The results in this text go back to PubChem BioAssay AID192 (DTP/NCI, 2004).

For this test, the system named is BDF1 mice, B16 melanoma ip, median survival T/C. Kind of test: NCI In Vivo Anticancer Drug Screen. Data for tumor model B16 Melanoma (intraperitoneal) in B6D2F1 (BDF1) mice. The note with it: endpoint: median survival time, higher = longer survival. In outline:
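Compounds were tested in mice carrying transplantable tumors. Survival or tumor size was recorded, and each value is the treated-group measurement (T) divided by that of the vehicle-treated control group (C).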

The mark [1] stands for this setting: dose: 12.5 mg/kg/injection, schedule: Q01DX009 (ip), vehicle: water.
Where [2] appears, read: dose: 25.0 mg/kg/injection, schedule: Q01DX009 (ip), vehicle: water.
The mark [3] stands for this setting: dose: 100.0 mg/kg/injection, schedule: Q01DX009 (ip), vehicle: Klucel (hydroxypropylcellulose) (HPC).
Setting [4] is: dose: 0.25 mg/kg/injection, schedule: Q01DX009 (ip), vehicle: saline.
The mark [5] stands for this setting: dose: 0.5 mg/kg/injection, schedule: Q01DX009 (ip), vehicle: saline.
The mark [6] stands for this setting: dose: 50.0 mg/kg/injection, schedule: Q01DX009 (ip), vehicle: saline with Tween-80.
The mark [7] stands for this setting: dose: 50.0 mg/kg/injection, schedule: Q01DX009 (ip), vehicle: saline.
[8] abbreviates: dose: 100.0 mg/kg/injection, schedule: Q01DX009 (ip), vehicle: saline.
[9] abbreviates: dose: 400.0 mg/kg/injection, schedule: Q01DX009 (ip), vehicle: saline.
Where [10] appears, read: dose: 6.25 mg/kg/injection, schedule: Q01DX009 (ip), vehicle: saline.
[11] abbreviates: dose: 1.56 mg/kg/injection, schedule: Q01DX009 (ip), vehicle: saline.
Setting [12] is: dose: 3.12 mg/kg/injection, schedule: Q01DX009 (ip), vehicle: saline.

Where “and” joins values, the source holds several entries; their conditions need not be identical. Equal entries are not always repeated. Toxic doses and inconclusive results are not listed.

Turning to `Cn1cnc([N+](=O)[O-])c1[Se]c1nc(N)nc2nc[nH]c12`, the T/C is 109 % of control (dose: 3.12 mg/kg/injection, schedule: Q01DX009 (ip), vehicle: water); 117 % of control (dose: 6.25 mg/kg/injection, schedule: Q01DX009 (ip), vehicle: water); 116 % of control (dose: 11.0 mg/kg/injection, schedule: Q01DX009 (ip), vehicle: other); 150 % of control under setting [1]; 117 % of control (dose: 16.5 mg/kg/injection, schedule: Q01DX009 (ip), vehicle: other); 153 % of control and 158 % of control under setting [2].

Turning to `COc1cc2ccc3c[n+](C)ccc3c2cc1OC`, the T/C under setting [1] was 101 % of control; the T/C under setting [2] was 106 % of control; the T/C (dose: 50.0 mg/kg/injection, schedule: Q01DX009 (ip), vehicle: water) was 95 % of control; the T/C (dose: 100.0 mg/kg/injection, schedule: Q01DX009 (ip), vehicle: water) was 101 % of control.

Consider `COc1ccc2c(c1)CCC1=C2CCC2(C)C(=O)OC(=O)C12` (centres undefined), for which the T/C under setting [3] was 103 % of control; the T/C (dose: 200.0 mg/kg/injection, schedule: Q01DX009 (ip), vehicle: Klucel (hydroxypropylcellulose) (HPC)) is 96 % of control; the T/C (dose: 400.0 mg/kg/injection, schedule: Q01DX009 (ip), vehicle: Klucel (hydroxypropylcellulose) (HPC)) was 100 % of control.

As to `OCCN1CCN(CC/C=C2/c3ccccc3Sc3ccc(C(F)(F)F)cc32)CC1`, the T/C was 97 % of control under setting [4]; 106 % of control under setting [5]; 111 % of control (dose: 1.0 mg/kg/injection, schedule: Q01DX009 (ip), vehicle: saline); 105 % of control (dose: 2.0 mg/kg/injection, schedule: Q01DX009 (ip), vehicle: saline).

Take `COC1CCC2=C(C1)C(=O)CC1c3ccccc3CN21` (centres undefined): the T/C is, setting by setting: (dose: 12.5 mg/kg/injection, schedule: Q01DX009 (ip), vehicle: saline with Tween-80) 86 % of control; (dose: 12.5 mg/kg/injection, schedule: Q04DX003 (ip), vehicle: saline with Tween-80) 92 % of control; (dose: 25.0 mg/kg/injection, schedule: Q01DX009 (ip), vehicle: saline with Tween-80) 93 % of control; (dose: 25.0 mg/kg/injection, schedule: Q04DX003 (ip), vehicle: saline with Tween-80) 105 % of control; under setting [6], 93 % of control; (dose: 50.0 mg/kg/injection, schedule: Q04DX003 (ip), vehicle: saline with Tween-80) 97 % of control.

With `CCN(CC)P(=O)(N1CC1C)N1CC1C` (centres undefined), the T/C was 123 % of control (dose: 9.3 mg/kg/injection, schedule: Q01DX009 (ip), vehicle: saline); 112 % of control (dose: 18.7 mg/kg/injection, schedule: Q01DX009 (ip), vehicle: saline); 99 % of control (dose: 37.5 mg/kg/injection, schedule: Q01DX009 (ip), vehicle: saline).

`CC(=O)[O][Pb]([CH2]C(C)C)([CH2]C(C)C)[CH2]C(C)C`: the T/C runs as follows: (dose: 0.09 mg/kg/injection, schedule: Q01DX009 (ip), vehicle: Klucel (hydroxypropylcellulose) (HPC)) 94 % of control; (dose: 0.19 mg/kg/injection, schedule: Q01DX009 (ip), vehicle: Klucel (hydroxypropylcellulose) (HPC)) 98 % of control; (dose: 0.38 mg/kg/injection, schedule: Q01DX009 (ip), vehicle: Klucel (hydroxypropylcellulose) (HPC)) 93 % of control; (dose: 0.75 mg/kg/injection, schedule: Q01DX009 (ip), vehicle: Klucel (hydroxypropylcellulose) (HPC)) 88 % of control and 98 % of control.

Turning to `CC1OC(O[C@H]2C[C@](O)(C(C)O)Cc3c(O)c4c(c(O)c32)C(=O)c2c(O)cccc2C4=O)CC(NC=O)C1O` (some centres undefined), the T/C was 154 % of control (dose: 2.0 micrograms/kg/injection, schedule: Q01DX009 (ip), vehicle: saline); 154 % of control (dose: 4.0 micrograms/kg/injection, schedule: Q01DX009 (ip), vehicle: saline); 192 % of control (dose: 8.0 micrograms/kg/injection, schedule: Q01DX009 (ip), vehicle: saline); 249 % of control (dose: 16.0 micrograms/kg/injection, schedule: Q01DX009 (ip), vehicle: saline); 195 % of control (dose: 32.0 micrograms/kg/injection, schedule: Q01DX009 (ip), vehicle: saline).

Regarding `NC(CCC(=O)NCC(=O)O)C(=O)O` (centres undefined), the T/C is, setting by setting: under setting [7], 92 % of control; under setting [8], 91 % of control; (dose: 200.0 mg/kg/injection, schedule: Q01DX009 (ip), vehicle: saline) 101 % of control; under setting [9], 88 % of control.

With `O=C1c2ccccc2C(=O)c2c(NCCCCCO)ccc(NCCCCCO)c21`, the T/C runs as follows: (dose: 8.0 mg/kg/injection, schedule: Q01DX009 (ip), vehicle: Klucel (hydroxypropylcellulose) (HPC)) 99 % of control; (dose: 16.0 mg/kg/injection, schedule: Q01DX009 (ip), vehicle: Klucel (hydroxypropylcellulose) (HPC)) 95 % of control; (dose: 32.0 mg/kg/injection, schedule: Q01DX009 (ip), vehicle: Klucel (hydroxypropylcellulose) (HPC)) 91 % of control.

With `CC(=O)N(C)N=Nc1ccc(C)cc1`, the T/C by setting is: (dose: 8.75 mg/kg/injection, schedule: Q01DX009 (ip), vehicle: Klucel (hydroxypropylcellulose) (HPC)) 103 % of control; (dose: 17.5 mg/kg/injection, schedule: Q01DX009 (ip), vehicle: Klucel (hydroxypropylcellulose) (HPC)) 103 % of control.

In the case of `CCN(CC)CC#CCCCCN(CC)CC`, the T/C runs as follows: (dose: 3.13 mg/kg/injection, schedule: Q01DX009 (ip), vehicle: saline) 95 % of control; under setting [10], 97 % of control; (dose: 12.5 mg/kg/injection, schedule: Q01DX009 (ip), vehicle: saline) 90 % of control; under setting [7], 89 % of control.

Turning to `Cc1nn(C2CC(O)C(O)C(CO)O2)c(=O)[nH]c1=O` (centres undefined), the T/C runs as follows: under setting [7], 95 % of control; under setting [8], 86 % of control; under setting [9], 86 % of control.

With `COC(CCCl)c1ccc(Cl)cc1` (centres undefined), the T/C under setting [6] is 102 % of control; the T/C (dose: 100.0 mg/kg/injection, schedule: Q01DX009 (ip), vehicle: saline with Tween-80) was 97 % of control; the T/C (dose: 200.0 mg/kg/injection, schedule: Q01DX009 (ip), vehicle: saline with Tween-80) is 87 % of control.

With `COc1ccc2c3c(c4cc(OC)c(OC)cc4c2c1)C[C@H]1CCCCN1C3`, the T/C is, setting by setting: (dose: 0.13 mg/kg/injection, schedule: Q01DX009 (ip), vehicle: saline) 114 % of control; under setting [4], 109 % of control; under setting [5], 104 % of control.

As to `O=C1OCCN1/N=C/c1ccc([N+](=O)[O-])o1`, the T/C under setting [3] is 100 % of control.

As for `CN1CCCN(C(c2ccccc2)c2ccc(Cl)cc2)CC1` (centres undefined), the T/C runs as follows: (dose: 1.95 mg/kg/injection, schedule: Q01DX009 (ip), vehicle: saline) 92 % of control; (dose: 3.9 mg/kg/injection, schedule: Q01DX009 (ip), vehicle: saline) 105 % of control; (dose: 7.81 mg/kg/injection, schedule: Q01DX009 (ip), vehicle: saline) 105 % of control; (dose: 15.62 mg/kg/injection, schedule: Q01DX009 (ip), vehicle: saline) 97 % of control; (dose: 31.25 mg/kg/injection, schedule: Q01DX009 (ip), vehicle: saline) 94 % of control.

Regarding `CC(CN1CCN(CCOCCO)CC1)CN1c2ccccc2Sc2ccccc21` (centres undefined), the T/C under setting [11] is 108 % of control; the T/C under setting [12] was 97 % of control; the T/C under setting [10] was 102 % of control; the T/C (dose: 25.0 mg/kg/injection, schedule: Q01DX009 (ip), vehicle: saline) is 100 % of control and 101 % of control.

As for `CS(=O)(=O)Nc1ccccc1N`, the T/C was 95 % of control under setting [11], 99 % of control under setting [12] and 98 % of control under setting [10].

For `O=C(NC(=O)C(Cl)Cl)OC1c2cc(Cl)ccc2-c2c(Cl)cc(Cl)cc21` (centres undefined), the T/C is 93 % of control (dose: 3.0 mg/kg/injection, schedule: Q01DX009 (ip), vehicle: saline with Tween-80); 97 % of control (dose: 6.0 mg/kg/injection, schedule: Q01DX009 (ip), vehicle: saline with Tween-80); 86 % of control (dose: 12.0 mg/kg/injection, schedule: Q01DX009 (ip), vehicle: saline with Tween-80).

For the molecule `Oc1ccc2ccccc2c1N=Nc1ccc(Cl)cc1`, the T/C (dose: 400.0 mg/kg/injection, schedule: Q01DX009 (ip), vehicle: saline with Tween-80) is 90 % of control.
